Assay [1] concerns Miapaca-2 cells. The assay is described as follows: Cell proliferation / viability assay (CellTiter-Glo, dose matrix) in Miapaca-2 cells. The assay is classed as cell-based. The method, then:
(§1) A cell proliferation assay was performed to investigate the activity of the combination of COMPOUND A and ANTIBODY A on Insulin-like Growth Factor 1 (IGF1)-induced proliferation of the KRAS mutant cell lines Miapaca-2 and AsPC-1. To evaluate the combination effect in a non-biased way, and to identify synergistic effects at different concentrations, the study was conducted using a “dose matrix” scheme (described in detail below).
(§2) COMPOUND A (10 mM) was stored in aliquots at −20° C. ANTIBODY A (0.2 mM in 1% BSA) was stored in aliquots at 4° C. Insulin-like Growth Factor-1 (IGF1; R&D System, Cat #291-G1) was reconstituted at 100 ug/mL in sterile Phosphate Buffered Saline (PBS).
(§3) The KRAS mutant, pancreatic cancer cell lines Miapaca-2 and AsPC-1 were cultured in DMEM medium (ATCC Cat #30-2002) and RPMI-1640 (ATCC Cat #30-2001) plus 10% Fetal Bovine Serum (FBS; Invitrogen Cat #10099-141) as recommended by the supplier. Cells were cultured in T-150 flasks using standard cell culture techniques and split upon reaching 80% confluency. TryPLE Express (Invitrogen #12604-013, no phenal red) was used for all cell dissociation. Cell count and viability were measured using Trypan dye exclusion with a ViCell counter (Beckman-Coulture). Cells were determined to be free of Mycoplasma using a PCR detection method (www.radil.missouri.edu). […]
(Cellular ATP, detected with luciferase, serves as a proxy for viable cell number.)

In assay [2] the test system is AsPC-1 cells. Kind of assay: Cell proliferation / viability assay (CellTiter-Glo, dose matrix) in AsPC-1 cells. The assay is classed as cell-based. Here is the method: as §1, §2, §3

Experimental findings from patent US8961970B2, “Combination therapy” (Novartis AG, priority 2012, dated 2015) are described below.

Turning to `Cn1cnc2c(F)c(Nc3ccc(Br)cc3F)c(C(=O)NOCCO)cc21` [COMPOUND A, 6-(4-bromo-2-fluorophenylamino)-7-fluoro-3-methyl-3H-benzoimidazole-5-carboxylic acid (2-hydroxyethyoxy)-amide], the “single agent anti-proliferative activity” value was “concentration dependent anti-proliferative activity” in assay [1] (Miapaca-2, KRAS mutant pancreatic cancer cell line, 120 hours incubation, presence and absence of IGF1 (100 ng/ml)); “concentration dependent anti-proliferative activity” in assay [2] (AsPC-1, KRAS mutant pancreatic cancer cell line, 120 hours incubation, presence and absence of IGF1 (100 ng/ml)). Further, the “effect of addition of IGF1 on single agent activity” value was “slightly dampen” in assay [1] (Miapaca-2, with versus without IGF1) and “slightly dampen” in assay [2] (AsPC-1, with versus without IGF1).
